Tests used:
OVCAR-5 = test: NCI-60 SRB growth inhibition, one-dose and five-dose; format: cell-based; settings: Homo sapiens
A549/ATCC = test: as above; format: cell-based; settings: Homo sapiens
NCI-H322M = test: as above; format: cell-based; settings: Homo sapiens
U251 = test: as above; format: cell-based; settings: Homo sapiens
CAKI-1 = test: as above; format: cell-based; settings: Homo sapiens
UACC-257 = test: as above; format: cell-based; settings: Homo sapiens
MOLT-4 = test: as above; format: cell-based; settings: Homo sapiens
BT-549 = test: as above; format: cell-based; settings: Homo sapiens
SNB-75 = test: as above; format: cell-based; settings: Homo sapiens
SNB-19 = test: as above; format: cell-based; settings: Homo sapiens
MDA-MB-468 = test: as above; format: cell-based; settings: Homo sapiens
K-562 = test: as above; format: cell-based; settings: Homo sapiens
OVCAR-4 = test: as above; format: cell-based; settings: Homo sapiens
SF-295 = test: as above; format: cell-based; settings: Homo sapiens
DU-145 = test: as above; format: cell-based; settings: Homo sapiens
T-47D = test: as above; format: cell-based; settings: Homo sapiens, T47D
SK-OV-3 = test: as above; format: cell-based; settings: Homo sapiens
HT29 = test: as above; format: cell-based; settings: Homo sapiens
HCT-15 = test: as above; format: cell-based; settings: Homo sapiens
CCRF-CEM = test: as above; format: cell-based; settings: Homo sapiens
HOP-92 = test: as above; format: cell-based; settings: Homo sapiens
NCI-H460 = test: as above; format: cell-based; settings: Homo sapiens
MCF7 = test: as above; format: cell-based; settings: Homo sapiens
RXF 393 = test: as above; format: cell-based; settings: Homo sapiens
SK-MEL-28 = test: as above; format: cell-based; settings: Homo sapiens
A498 = test: as above; format: cell-based; settings: Homo sapiens
COLO 205 = test: as above; format: cell-based; settings: Homo sapiens
MALME-3M = test: as above; format: cell-based; settings: Homo sapiens
NCI-H522 = test: as above; format: cell-based; settings: Homo sapiens
OVCAR-3 = test: as above; format: cell-based; settings: Homo sapiens
SK-MEL-5 = test: as above; format: cell-based; settings: Homo sapiens
SR = test: as above; format: cell-based; settings: Homo sapiens
M14 = test: as above; format: cell-based; settings: Homo sapiens
LOX IMVI = test: as above; format: cell-based; settings: Homo sapiens
[1] = tested on: NCI 60-cell line panel (full panel); test: NCI-60 SRB growth inhibition, full panel mean / MG-MID; format: cell-based, human
EKVX = test: NCI-60 SRB growth inhibition, one-dose and five-dose; format: cell-based; settings: Homo sapiens
SF-268 = test: as above; format: cell-based; settings: Homo sapiens
786-0 = test: as above; format: cell-based; settings: Homo sapiens
NCI-H23 = test: as above; format: cell-based; settings: Homo sapiens
SK-MEL-2 = test: as above; format: cell-based; settings: Homo sapiens
SW-620 = test: as above; format: cell-based; settings: Homo sapiens
NCI/ADR-RES = test: as above; format: cell-based; settings: Homo sapiens
[2] = read-out: percent growth inhibition

CC(=O)Nc1ccc(/C=C/C(=O)c2cccc(NCc3ccc(CO)cc3)c2)cc1 [Compound 5j, (E)-N-(4–(3-(3-((4-(hydroxymethyl)benzyl)amino)phenyl)-3-oxoprop-1-en-1-yl)phenyl) acetamide]
GI50 (OVCAR-5; OVCAR-5): 12.6 µM
inhibition at 10 µM (OVCAR-5; OVCAR-5, read-out: percent growth inhibition): 74%
GI50 (A549/ATCC; A549): 17.2 µM
inhibition at 10 µM (A549/ATCC; A549, read-out: percent growth inhibition): 34.3%
GI50 (NCI-H322M): 14.4 µM
inhibition at 10 µM (NCI-H322M; [2]): 38.8%
GI50 (U251; U-251): 3.6 µM
inhibition at 10 µM (U251; U-251, read-out: percent growth inhibition): 195%
GI50 (CAKI-1; CAKI-1): 14.8 µM
inhibition at 10 µM (CAKI-1; CAKI-1, read-out: percent growth inhibition): 134%
GI50 (UACC-257; UACC-257): 11.7 µM
inhibition at 10 µM (UACC-257; UACC-257, read-out: percent growth inhibition): 135%
GI50 (MOLT-4; MOLT-4): 2.85 µM
inhibition at 10 µM (MOLT-4; MOLT-4, read-out: percent growth inhibition): 120%
GI50 (BT-549; BT-549): 12.1 µM
inhibition at 10 µM (BT-549; BT-549, read-out: percent growth inhibition): 119%
GI50 (SNB-75; SNB-75): 11.9 µM
inhibition at 10 µM (SNB-75; SNB-75, read-out: percent growth inhibition): 18.2%
GI50 (SNB-19; SNB-19): 10.1 µM
inhibition at 10 µM (SNB-19; SNB-19, read-out: percent growth inhibition): 114%
GI50 (MDA-MB-468; MDA-MB-468): 6.27 µM
inhibition at 10 µM (MDA-MB-468; MDA-MB-468, read-out: percent growth inhibition): 171%
GI50 (K-562; K562): 3.43 µM
inhibition at 10 µM (K-562; K562, read-out: percent growth inhibition): 104%
GI50 (OVCAR-4; OVCAR-4): 14.8 µM
inhibition at 10 µM (OVCAR-4; OVCAR-4, read-out: percent growth inhibition): 75.5%
GI50 (SF-295; SF-295): 12.4 µM
inhibition at 10 µM (SF-295; SF-295, read-out: percent growth inhibition): 79.5%
GI50 (DU-145; DU-145): 5.03 µM
inhibition at 10 µM (DU-145; DU-145, read-out: percent growth inhibition): 84.8%
GI50 (T-47D): 13.5 µM
inhibition at 10 µM (T-47D; [2]): 70.2%
GI50 (SK-OV-3; SK-OV-3): 16.3 µM
inhibition at 10 µM (SK-OV-3; SK-OV-3, read-out: percent growth inhibition): 4.73%
GI50 (HT29; HT-29): 6.06 µM
inhibition at 10 µM (HT29; HT-29, read-out: percent growth inhibition): 180%
GI50 (HCT-15; HCT-15): 4.63 µM
inhibition at 10 µM (HCT-15; HCT-15, read-out: percent growth inhibition): 140%
GI50 (CCRF-CEM): 8.8 µM
inhibition at 10 µM (CCRF-CEM; [2]): 121%
GI50 (HOP-92; HOP-92): 14.1 µM
inhibition at 10 µM (HOP-92; HOP-92, read-out: percent growth inhibition): 34.6%
GI50 (NCI-H460; NCI-H460): 13.4 µM
inhibition at 10 µM (NCI-H460; NCI-H460, read-out: percent growth inhibition): 148%
GI50 (MCF7; MCF7): 3.19 µM
inhibition at 10 µM (MCF7; MCF7, read-out: percent growth inhibition): 126%
GI50 (RXF 393; RXF 393): 11.8 µM
inhibition at 10 µM (RXF 393; RXF 393, read-out: percent growth inhibition): 190%
GI50 (SK-MEL-28; SK-MEL-28): 13.4 µM
inhibition at 10 µM (SK-MEL-28; SK-MEL-28, read-out: percent growth inhibition): 167%
GI50 (A498; A498): 15 µM
inhibition at 10 µM (A498; A498, read-out: percent growth inhibition): 3.83%
GI50 (COLO 205; COLO 205): 16 µM
inhibition at 10 µM (COLO 205; COLO 205, read-out: percent growth inhibition): 150%
GI50 (MALME-3M): 11 µM
inhibition at 10 µM (MALME-3M; [2]): 141%
GI50 (NCI-H522; NCI-H522): 5 µM
inhibition at 10 µM (NCI-H522; NCI-H522, read-out: percent growth inhibition): 178%
GI50 (OVCAR-3; OVCAR-3): 4.63 µM
inhibition at 10 µM (OVCAR-3; OVCAR-3, read-out: percent growth inhibition): 138%
GI50 (SK-MEL-5; SK-MEL-5): 10.2 µM
inhibition at 10 µM (SK-MEL-5; SK-MEL-5, read-out: percent growth inhibition): 183%
GI50 (SR): 2.61 µM
GI50 (M14; M14): 14.3 µM
inhibition at 10 µM (M14; M14, read-out: percent growth inhibition): 146%
GI50 (LOX IMVI): 2.96 µM
inhibition at 10 µM (LOX IMVI; [2]): 194%
GI50 ([1]; Homo sapiens, 60 cell, read-out: Full panel GI50 mean): 10.3 µM
Full panel Mean GI % ([1]; mean over NCI-60 panel, single dose 10 µM): 120.44%
GI50 (EKVX): 14.4 µM
inhibition at 10 µM (EKVX; [2]): 88.9%
GI50 (SF-268; SF-268): 15.4 µM
inhibition at 10 µM (SF-268; SF-268, read-out: percent growth inhibition): 88.8%
GI50 (786-0; 786-0): 14.1 µM
inhibition at 10 µM (786-0; 786-0, read-out: percent growth inhibition): 186%
GI50 (NCI-H23; NCI-H23): 13.9 µM
inhibition at 10 µM (NCI-H23; NCI-H23, read-out: percent growth inhibition): 95.9%
GI50 (SK-MEL-2; SK-MEL-2): 15.3 µM
inhibition at 10 µM (SK-MEL-2; SK-MEL-2, read-out: percent growth inhibition): 53.9%
GI50 (SW-620; SW-620): 4.27 µM
inhibition at 10 µM (SW-620; SW-620, read-out: percent growth inhibition): 157%
GI50 (NCI/ADR-RES): 16.8 µM
inhibition at 10 µM (NCI/ADR-RES; [2]): 126%
